Tests used:
HER2 = target: T1, HER2 (Homo sapiens, UniProt P04626); assay: Suppression of receptor tyrosine-phosphorylation in human breast cancer cells BT-474; format: cell-based; details: BT-474 cells, 2 hours with test compound, anti-phosphotyrosine antibody blot; read-out: Inhibition of intracellular HER2 phosphorylation BT-474 (IC50: μM)
T1 construct: Taking as 100% the amount of phosphorylation of the HER2 tyrosine in control group; endogenous in cells; host or cells: BT-474 human breast cancer cells
T1 sequence (P04626 23-1255): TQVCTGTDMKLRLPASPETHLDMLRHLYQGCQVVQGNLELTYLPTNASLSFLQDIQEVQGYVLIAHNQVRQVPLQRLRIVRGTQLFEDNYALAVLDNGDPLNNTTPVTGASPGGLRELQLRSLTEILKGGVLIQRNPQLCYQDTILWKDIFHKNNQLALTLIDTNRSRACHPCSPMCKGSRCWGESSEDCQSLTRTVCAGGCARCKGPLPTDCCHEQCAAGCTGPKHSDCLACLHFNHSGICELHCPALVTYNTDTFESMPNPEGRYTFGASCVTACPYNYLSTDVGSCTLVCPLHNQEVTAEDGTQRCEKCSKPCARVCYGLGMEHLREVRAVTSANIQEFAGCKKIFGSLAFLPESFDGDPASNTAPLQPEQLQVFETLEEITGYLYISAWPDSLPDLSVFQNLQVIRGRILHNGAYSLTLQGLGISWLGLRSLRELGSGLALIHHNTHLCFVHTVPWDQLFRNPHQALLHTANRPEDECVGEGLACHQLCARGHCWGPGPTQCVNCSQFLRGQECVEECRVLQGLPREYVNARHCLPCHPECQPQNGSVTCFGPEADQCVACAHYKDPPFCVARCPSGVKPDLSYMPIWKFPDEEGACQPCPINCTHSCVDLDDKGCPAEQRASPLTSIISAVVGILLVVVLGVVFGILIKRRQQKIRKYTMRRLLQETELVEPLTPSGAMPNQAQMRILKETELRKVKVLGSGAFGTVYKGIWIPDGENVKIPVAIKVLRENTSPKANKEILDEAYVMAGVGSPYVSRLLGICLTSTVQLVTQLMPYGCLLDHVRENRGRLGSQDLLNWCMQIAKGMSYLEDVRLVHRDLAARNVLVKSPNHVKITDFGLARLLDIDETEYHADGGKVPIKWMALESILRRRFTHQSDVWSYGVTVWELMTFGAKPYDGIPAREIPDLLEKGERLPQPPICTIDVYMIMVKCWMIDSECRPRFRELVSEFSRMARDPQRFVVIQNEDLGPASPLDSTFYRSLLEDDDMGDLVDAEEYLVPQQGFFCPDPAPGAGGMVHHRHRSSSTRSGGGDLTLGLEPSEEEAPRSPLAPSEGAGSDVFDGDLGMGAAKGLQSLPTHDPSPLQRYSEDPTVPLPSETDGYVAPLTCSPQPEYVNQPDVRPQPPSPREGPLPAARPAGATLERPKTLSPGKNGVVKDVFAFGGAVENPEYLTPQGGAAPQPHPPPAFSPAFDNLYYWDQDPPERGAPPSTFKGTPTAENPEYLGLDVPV
Method: A suspension of human breast cancer cell BT-474 (500 μl (300,000 cells)) were sown into a 24-well plate, and cultured at 37° C. in the presence of 5% carbon dioxide. On the following day, 250 μl of a solution of the test compound, which was previously 4-fold diluted, was added. After 2 hours, the extraction was added to stop the reaction and the protein was extracted. This protein was subjected to protein electrophoresis to separate and transferred to a nylon filter. This filter was reacted with an anti-phosphotyrosine antibody; the reaction product was luminated. The amount of film photosensitization was determined using an image analyzer. Taking as 100% the amount of phosphorylation of the HER2 tyrosine in control group, the ratio of the amount of phosphorylation of the HER2 tyrosine in each group receiving a solution of the test compound at each concentration was determined, and the test compound concentration required to achieve 50% suppression by the test compound of the amount of phosphorylation of HER2 tyrosine (IC50 value) was calculated.

[1] = tested on: human breast cancer cell BT-474; assay: Inhibitory action on breast cancer cell BT-474 proliferation in vitro (SRB); format: cell-based; details: 120 h, BT-474 cells, cultured for 5 days, SRB staining, read-out: Cell growth inhibition BT-474 (IC50: μM)
Method: A suspension of human breast cancer cell BT-474 (100 μl (6,000 cells)) were sown to a 96-well microplate and cultured at 37° C. in the presence of 5% carbon dioxide. On the following day, 100 μl of a solution of each test compound, which was previously diluted 2-fold, was added, and the cells were cultured for 5 days. After the culture medium containing the test compound was removed, the cells were washed and fixed with 50% trichloroacetic acid, after which a 0.4% (w/v) SRB solution (dissolved in 1% acetic acid) was added to stain the cells (Skehan et al., Journal of the National Cancer Institute, Vol. 82, pp. 1107-1112, 1990). After the pigment solution was removed and the plate was washed with a 1% acetic acid solution, 100 μl of an extract (10 mM Tris solution) was added to dissolve the pigment; absorbance was measured at an absorption wavelength of 550 nm to quantify the amount of cells as protein content. Taking as 100% the absorbance for the control group, which received no test compound solution, the ratio of the absorbance for each treatment group was determined, and the compound concentration required to achieve 50% suppression of the residual cell content relative to the control (IC50 value) was calculated.

SMILES	IC50 (HER2) [µM]	IC50 [1] [µM]
CS(=O)(=O)CCc1nccn1CCCCc1ccc(OCc2coc(/C=C/c3ccc(C(F)(F)F)cc3)n2)cc1 [Example 17, 4-[[4-[4-[2-[2-(methylsulfonyl)ethyl]-1H-imidazol-1-yl]butyl]phenoxy]methyl]-2-[(E)-2-[4-(trifluoromethyl)phenyl]ethenyl]-1,3-oxazole]	< 4	
CS(=O)(=O)NCCc1nccn1CCCCc1ccc(OCc2coc(/C=C/c3ccc(C(F)(F)F)cc3)n2)cc1 [Example 16, N-[2-[1-[4-[4-[[2-[(E)-2-[4-(trifluoromethyl)phenyl]ethenyl]-1,3-oxazol-4-yl]methoxy]phenyl]butyl]-1H-imidazol-2-yl]ethyl]methanesulfonamide]	< 4	0.15
CS(=O)(=O)CCc1nccn1CCCCc1ccc(OCc2coc(/C=C/c3ccc(F)cc3)n2)cc1 [Example 11, 2-[(E)-2-(4-fluorophenyl)ethenyl]-4-[[4-[4-[2-[2-(methylsulfonyl)ethyl]-1H-imidazol-1-yl]butyl]phenoxy]methyl]-1,3-oxazole]	< 4	
CC(C)NC(=O)OCCc1nccn1CCCCc1ccc(OCc2coc(/C=C/c3ccc(C(F)(F)F)cc3)n2)cc1 [Example 1, 2-[1-[4-[4-[[2-[(E)-2-[4-(trifluoromethyl)phenyl]ethenyl]-1,3-oxazol-4-yl]methoxy]phenyl]butyl]-1H-imidazol-2-yl]ethyl isopropylcarbamate]	< 4	< 0.05
O=C(CCc1nccn1CCCCc1ccc(OCc2coc(/C=C/c3ccc(C(F)(F)F)cc3)n2)cc1)N1CCCC1 [Example 6, 1-{3-[1-(4-{4-[(2-{(E)-2-[4-(trifluoromethyl)phenyl]ethenyl}-1,3-oxazol-4-yl)methoxy]phenyl}butyl)-1H-imidazol-2-yl]propanoyl}pyrrolidine]	< 4	< 0.05
CN(C)C(=O)CCc1nccn1CCCCc1ccc(OCc2coc(/C=C/c3ccc(C(F)(F)F)cc3)n2)cc1 [Example 5, N,N-dimethyl-3-[1-[4-[4-[[2-[(E)-2-[4-(trifluoromethyl)phenyl]ethenyl]-1,3-oxazol-4-yl]methoxy]phenyl]butyl]-1H-imidazol-2-yl]propanamide]	< 4	< 0.05
O=C(OCCc1nccn1CCCCc1ccc(OCc2coc(/C=C/c3ccc(C(F)(F)F)cc3)n2)cc1)N1CCCC1 [Example 3, 2-[1-[4-[4-[[2-[(E)-2-[4-(trifluoromethyl)phenyl]ethenyl]-1,3-oxazol-4-yl]methoxy]phenyl]butyl]-1H-imidazol-2-yl]ethyl 1-pyrroridinecarboxylate]	< 4	< 0.05

From patent US6984653B2, “Heterocyclic compounds, oxazole derivatives, process for preparation of the same and use thereof” (Takeda Pharmaceutical Company Limited, priority 2001, dated 2006)
